Source: article PMC12127091, “Targeting Cancer With Bifunctional Peptides: Mechanism of Cell Entry and Inciting Cell Death” (Cancer Science, 2025)
Where a SMILES comes first, the peptide text is derived from it. [ ]: non-standard residue; d: D form.

Experiments:
[1] = test system: SK‐BR‐3; assay: Plasma membrane damage (LDH leakage, Annexin V binding); format: cell-based; conditions: SK‐BR‐3, 8 μM peptides, Figure 5a,b
Method: 7 × 10^3–10^4 cells were seeded in a 96‐well plate and left to recover overnight. The cells were treated with 8 μM of peptides and were harvested at two time points. The treated cells were harvested, and the supernatants were collected.
The cells were stained with FITC Annexin V and 7‐AAD (Biolegend) in Annexin V binding buffer (Becton, Dickinson and Company). The binding of Annexin V was checked using flow cytometry.
25 μL of the supernatant was used to check the presence of active lactate dehydrogenase using the CyQUANT LDH Cytotoxicity Assay Kit (Thermo Fisher Scientific) according to the manufacturer's instructions. The absorbance was measured at 490 and 680 nm.

[2] = test system: Caki‐2, SK‐BR‐3, A‐704 and CCD18‐Co; assay: FITC‐peptide uptake by flow cytometry; format: cell-based; conditions: Caki‐2 and SK‐BR‐3, 5 μM FITC‐peptide, 1 h, Figure 2a
Method: 7 × 10^3–10^4 cells were seeded in a 96‐well plate. On the next day, the cells were incubated with 5 μM of FITC‐conjugated peptides. The cells were harvested at different time points and measured for their fluorescence intensity using BD FACSCanto II (Becton, Dickinson and Company, Franklin Lanes, NJ, USA). Dead cells were excluded by staining the cells with 7‐AAD dye (Biolegend, San Diego, CA, USA).

[3] = test system: human erythrocytes; conditions: cited from earlier work
From the text: (§1) Nonetheless, introducing this peptide to human sarcoma and melanoma cell lines at 1% of their inhibitory concentrations (IC50) was described to induce mitochondrial swelling p ...

[4] = attributed to high polarity; cited from earlier work
From the text: as §1

SMILES | time after peptide addition at which major plasma membrane damage was detected [1] [h] | internalization (fluorescence intensity) of FITC‐peptides [2] | cytotoxicity towards human erythrocytes [3] | ability to cross the plasma membrane [4]
CC(C)C[C@H](NC(=O)[C@H](Cc1c[nH]c2ccccc12)NC(=O)[C@@H]1CCCN1C(=O)[C@H](CO)NC(=O)[C@H](Cc1ccc(O)cc1)NC(=O)[C@@H](N)C(C)C)C(=O)N[C@H](C(=O)NCC(=O)NCC(=O)N[C@H](CCCCN)C(=O)N[C@H](CC(C)C)C(=O)N[C@H](C)C(=O)N[C@H](CCCCN)C(=O)N[C@H](CC(C)C)C(=O)N[C@H](C)C(=O)N[C@H](CCCCN)C(=O)N[C@H](CCCCN)C(=O)N[C@H](CC(C)C)C(=O)N[C@H](C)C(=O)N[C@H](CCCCN)C(=O)N[C@H](CC(C)C)C(=O)N[C@H](C)C(=O)N[C@H](CCCCN)C(=O)O)[C@@H](C)O [TP2‐D‐Tox] (H-VYSPWLTGG[dK][dL][dA][dK][dL][dA][dK][dK][dL][dA][dK][dL][dA][dK]-OH) | ≤ 3 | higher cell penetration | – | –
CC(C)C[C@H](N)C(=O)N[C@H](C(=O)N[C@H](C(=O)N[C@@H](CO)C(=O)N1CCC[C@H]1C(=O)N[C@@H](Cc1c[nH]c2ccccc12)C(=O)N[C@@H](Cc1ccc(O)cc1)C(=O)NCC(=O)NCC(=O)N[C@H](CCCCN)C(=O)N[C@H](CC(C)C)C(=O)N[C@H](C)C(=O)N[C@H](CCCCN)C(=O)N[C@H](CC(C)C)C(=O)N[C@H](C)C(=O)N[C@H](CCCCN)C(=O)N[C@H](CCCCN)C(=O)N[C@H](CC(C)C)C(=O)N[C@H](C)C(=O)N[C@H](CCCCN)C(=O)N[C@H](CC(C)C)C(=O)N[C@H](C)C(=O)N[C@H](CCCCN)C(=O)O)C(C)C)[C@@H](C)O [TP‐D‐Tox] (H-LTVSPWYGG[dK][dL][dA][dK][dL][dA][dK][dK][dL][dA][dK][dL][dA][dK]-OH) | ≤ 3 | – | – | –
CC(C)C[C@H](NC(=O)[C@H](CCCCN)NC(=O)[C@H](C)NC(=O)[C@H](CC(C)C)NC(=O)[C@H](CCCCN)NC(=O)[C@H](CCCCN)NC(=O)[C@H](C)NC(=O)[C@H](CC(C)C)NC(=O)[C@H](CCCCN)NC(=O)[C@H](C)NC(=O)[C@H](CC(C)C)NC(=O)[C@@H](N)CCCCN)C(=O)N[C@@H](C)C(=O)N[C@@H](CCCCN)C(=O)O [Tox] | – | – | considerably lower cytotoxicity | hardly able to cross the plasma membrane
